Experimental data as given in the supplement of paper PMC10307832.

Key:
Experiment in all cases: relative viability (nuclei count vs DMSO), 5 days (fraction); higher = more cells survive
AT-7519 + Palbociclib = compound: O=C(NC1CCNCC1)c1n[nH]cc1NC(=O)c1c(Cl)cccc1Cl [AT-7519] + CC(=O)c1c(C)c2cnc(Nc3ccc(N4CCNCC4)cn3)nc2n(C2CCCC2)c1=O [Palbociclib] (partner 0.5 µM)
Summary of the method: (§1)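 Relative viability divides the nuclei count in treated wells by that in vehicle wells. Lung cancer cell lines were seeded in 1536-well plates, dosed by pin tool the next day, and fixed and stained after 5 days in one step with final 0.05% Triton X-100, 1% formaldehyde and 1 ug/ml Hoechst. Dosing was a single drug or a fixed anchor-drug dose plus five library-drug doses (not always all listed) in √10 steps, and values are medians of duplicate plates imaged at 4×.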

AT-7519 + Phenformin = compound: O=C(NC1CCNCC1)c1n[nH]cc1NC(=O)c1c(Cl)cccc1Cl [AT-7519] + N=C(N)NC(=N)NCCc1ccccc1 [Phenformin] (partner 250 µM)
Summary of the method: as §1

AT-7519 + Luminespib = compound: O=C(NC1CCNCC1)c1n[nH]cc1NC(=O)c1c(Cl)cccc1Cl [AT-7519] + CCNC(=O)c1noc(-c2cc(C(C)C)c(O)cc2O)c1-c1ccc(CN2CCOCC2)cc1 [Luminespib] (partner 0.01 µM)
Summary of the method: as §1

[1] = compound: C1=CC2=C(C=C(C(=C2N=C1)O)N=NC3=CC4=C(C=C3)C=C(C=C4)S(=O)(=O)O)S(=O)(=O)O + CS(=O)(=O)CCNCc1ccc(-c2ccc3ncnc(Nc4ccc(OCc5cccc(F)c5)c(Cl)c4)c3c2)o1 [Lapatinib] (partner 2 µM)
Summary of the method: as §1

Row | Cell Line | relative viability (AT-7519 + Palbociclib; first compound 0.01 µM) | relative viability (AT-7519 + Palbociclib; first compound 0.3162 µM) | relative viability (AT-7519 + Palbociclib; first compound 1 µM) | relative viability (AT-7519 + Phenformin; first compound 0.01 µM) | relative viability (AT-7519 + Phenformin; first compound 0.03162 µM) | relative viability (AT-7519 + Phenformin; first compound 0.3162 µM) | relative viability (AT-7519 + Phenformin; first compound 1 µM) | relative viability (AT-7519 + Palbociclib; first compound 0.03162 µM) | relative viability (AT-7519 + Luminespib; first compound 0.01 µM) | relative viability (AT-7519 + Luminespib; first compound 0.03162 µM) | relative viability (AT-7519 + Luminespib; first compound 0.3162 µM) | relative viability (AT-7519 + Luminespib; first compound 1 µM) | relative viability ([1]; first compound 0.08 µM) | relative viability ([1]; first compound 0.253 µM) | relative viability ([1]; first compound 0.8 µM) | relative viability ([1]; first compound 2.53 µM) | relative viability ([1]; first compound 8 µM)
1 | NCI-H1648 | 0.32 | 0.242 | 0.245 | – | – | – | – | – | – | – | – | – | – | – | – | – | –
2 | SK-MES-1 | 0.304 | 0.295 | 0.204 | 0.655 | 0.651 | 0.63 | 0.331 | 0.31 | 0.847 | 0.734 | 0.593 | 0.33 | 0.482 | 0.444 | 0.468 | 0.464 | 0.546
3 | HCC-366 | 0.393 | 0.317 | 0.139 | 0.624 | 0.616 | 0.613 | 0.509 | 0.228 | – | – | – | – | 1.13 | 0.954 | 1.03 | 1.02 | 1.02
4 | 201T | 0.339 | 0.32 | 0.363 | 0.461 | 0.441 | 0.486 | 0.473 | 0.34 | 1.12 | 1.07 | 1.04 | 1.05 | 0.975 | 1.04 | 1.01 | 0.997 | 1.02
5 | HCC-827 | 0.433 | 0.478 | 0.398 | 0.457 | 0.437 | 0.341 | 0.246 | 0.494 | 0.603 | 0.61 | 0.566 | 0.334 | 0.19 | 0.159 | 0.185 | 0.189 | 0.188
6 | NCI-H647 | 0.442 | 0.413 | 0.19 | 0.619 | 0.529 | 0.335 | 0.281 | 0.369 | 0.209 | 0.244 | 0.148 | 0.0855 | 1.64 | 0.828 | 0.974 | 0.998 | 0.904
7 | NCI-H2023 | 0.393 | 0.243 | 0.0824 | 0.389 | 0.435 | 0.321 | 0.0704 | 0.401 | 0.622 | 0.748 | 0.521 | 0.16 | 0.825 | 0.773 | 0.899 | 0.95 | 0.818
8 | NCI-H520 | 0.226 | 0.209 | 0.194 | 0.66 | 0.669 | 0.422 | 0.257 | 0.197 | 0.233 | 0.239 | 0.263 | 0.209 | 1.1 | 0.791 | 0.833 | 0.798 | 0.848
9 | RERF-LC-KJ | 1.09 | 0.86 | 0.55 | 0.456 | 0.418 | 0.388 | 0.217 | 1.13 | 1.18 | 1.21 | 0.856 | 0.311 | 0.873 | 0.851 | 0.854 | 0.835 | 0.788
10 | A-427 | 0.551 | 0.467 | 0.327 | 0.233 | 0.315 | 0.238 | 0.222 | 0.491 | 1.07 | 0.88 | 1.06 | 0.184 | 1.16 | 0.825 | 0.974 | 1.05 | 1.1
11 | NCI-H441 | 0.202 | 0.141 | 0.163 | 0.847 | 0.955 | 0.775 | 0.515 | 0.195 | 0.424 | 0.367 | 0.313 | 0.242 | – | – | – | – | –
12 | NCI-H1703 | – | – | – | – | – | – | – | – | – | – | – | – | 1.36 | 0.886 | 1.06 | 1.01 | 1.01
13 | NCI-H1792 | – | 0.692 | 0.837 | 0.208 | 0.22 | 0.315 | 0.163 | – | – | 0.453 | 0.359 | 0.613 | 0.996 | 0.853 | 0.834 | 0.916 | 0.913
14 | Calu-6 | – | – | – | – | – | – | – | – | – | – | – | – | 1.16 | 1.03 | 1.01 | 1.02 | 1.03
15 | SK-LU-1 | 0.38 | 0.361 | 0.311 | 0.499 | 0.444 | 0.322 | 0.231 | 0.361 | 0.221 | 0.195 | 0.202 | 0.2 | 1.06 | 0.88 | 0.943 | 0.881 | 0.959
16 | PC-3 [JPC-3] | 0.591 | 0.508 | 0.575 | 0.471 | 0.474 | 0.45 | 0.484 | 0.548 | 0.515 | 0.558 | 0.694 | 0.623 | 0.483 | 0.474 | 0.484 | 0.445 | 0.426
17 | EMC-BAC-2 | 0.504 | 0.468 | 0.513 | 0.52 | 0.524 | 0.495 | 0.585 | 0.506 | 1.21 | 1.17 | 1.19 | 1.14 | 0.826 | 0.881 | 0.877 | 0.927 | 0.74
18 | LK-2 | 0.783 | 0.675 | 0.547 | 0.278 | 0.482 | – | 0.307 | 0.968 | 0.188 | 0.159 | – | 0.189 | 0.946 | 0.883 | 0.839 | 0.939 | 0.718
19 | NCI-H2126 | 0.348 | 0.358 | 0.341 | 0.552 | 0.494 | 0.491 | 0.33 | 0.352 | 1.02 | 0.916 | 0.805 | 0.297 | 0.808 | 0.723 | 0.723 | 0.777 | 0.759
20 | NCI-H3122 | 0.212 | 0.221 | 0.145 | 0.405 | 0.37 | 0.325 | 0.13 | 0.506 | 0.104 | 0.0901 | 0.112 | 0.0695 | 0.99 | 0.982 | 1.04 | 0.947 | 1.01
21 | NCI-H1975 | 0.51 | 0.362 | 0.176 | 0.382 | 0.408 | 0.274 | 0.155 | 0.599 | 0.21 | 0.176 | 0.317 | 0.126 | 1.08 | 0.883 | 0.833 | 0.987 | 0.861
